In patent US11667656B2, “Crystalline forms of Tenofovir alafenamide” (Apotex Inc., priority 2021, dated 2023):
Structures can show the parent of a compound that is named as a salt.

How the values were obtained:
[1] = Wood apparatus, bath 37° C., 900 mL distilled water, 50 rpm, compressed 200-400 mg samples
Experimental: Intrinsic dissolution rate (IDR) measurements were performed using a Wood apparatus (Pharma Test PT-DT8 instrument) having a bath temperature of 37° C. Samples were prepared by compressing 200-400 mg samples at 1.5 metric tons for 1 minute. A dissolution medium consisting of 900 mL distilled water, and rotation speed of 50 rpm, was used for each experiment.

[2] = rats; in comparison to tenofovir alafenamide hemifumarate; CN 105237571 B; cited from earlier work
[3] = reported; cited from earlier work
[4] = CDER review, NDA 207561; cited from earlier work

Tenofovir alafenamide succinate [Tenofovir alafenamide succinate (1:1)]
Intrinsic Dissolution Rate [1]: 0.67 mg min^−1 cm^−2

tenofovir alafenamide hemisuccinate
absorption (AUC) [2]: higher
maximum plasma concentration (Cmax) [2]: higher

CC(C)OC(=O)[C@H](C)N[P@](=O)(CO[C@H](C)Cn1cnc2c(N)ncnc21)Oc1ccccc1 [Tenofovir alafenamide fumarate (1:1), Tenofovir alafenamide fumarate]
Intrinsic Dissolution Rate [1]: 0.87 mg min^−1 cm^−2

CC(C)OC(=O)[C@H](C)N[P@](=O)(CO[C@H](C)Cn1cnc2c(N)ncnc21)Oc1ccccc1 [tenofovir alafenamide, L-alanine, N—[(S)-[[(1 R)-2-(6-amino-9H-purin-9-yl)-1-methylethoxy]methyl]phenoxyphosphinyl]-, 1-methylethyl ester]
bioavailability [3]: low

tenofovir alafenamide hemifumarate
Biopharmaceutics Classification System (BCS) class [4]: Class III
solubility [4]: high
